From patent publication US4197312A, “Alkali metal and alkaline earth metal salts of benzoylacetonitriles” (American Cyanamid Company, priority 1978, dated 1980)

What was measured:
[1] = system: Adjuvant induced arthritis; experiment: Adjuvant induced arthritis in the rat (primary lesion, paw swelling); format: in vivo, rat (Royal Hart, Wistar strain); settings: once daily days 0 to 13
Procedure: Adjuvant induced arthritis in the rat
Groups of three Royal Hart, Wistar strain rats weighing 200±10 g. each were injected intradermally in the right hind paw with Freund's adjuvant (dried human tubercle bacilli in a mineral oil vehicle) at a dose of 2 mg./kg. of body weight. The test compounds were administered orally in a 1.5% starch vehicle at various doses once daily on days 0 to 13 post challenge. Control rats were treated in a similar manner, but given only starch vehicle. On the 14th and 21st day post challenge the diameter of the injected paw was measured by micrometer caliper. The volume of inflamed paws were estimated from these measurements and the effects of each compound are expressed as percent inhibition of swelling was compared to controls. Table I records the results of these tests conducted with representative compounds of this invention and known anti-inflammatory agents. The active compounds of this invention suppress the progression of the arthritis and associated joint deterioration.

[2] = system: arthritic paw swelling; joint and bone deterioration; settings: literature (S. Wong et al.; G. R. Bobalick et al.); cited from earlier work

## CC(=O)Oc1ccccc1C(=O)O [Aspirin]
[1]; oral 50 mg./kg.
  (Primary Lesion) % Inhibition of Swelling Day 14: 23%
  (Primary Lesion) % Inhibition of Swelling Day 21: 3%
[1]; oral 100 mg./kg.
  (Primary Lesion) % Inhibition of Swelling Day 14: 36%
  (Primary Lesion) % Inhibition of Swelling Day 21: 13%
[1]; oral 200 mg./kg.
  (Primary Lesion) % Inhibition of Swelling Day 14: 48%
  (Primary Lesion) % Inhibition of Swelling Day 21: 27%
[1]; oral 400 mg./kg.
  (Primary Lesion) % Inhibition of Swelling Day 14: 73%
  (Primary Lesion) % Inhibition of Swelling Day 21: 48%

## N#CCC(=O)c1ccccc1.[Na] [Benzoylacetonitrile sodium salt, Benzoylacetonitrile, sodium salt]
[1]; oral 50 mg./kg.
  (Primary Lesion) % Inhibition of Swelling Day 14: 59%
  (Primary Lesion) % Inhibition of Swelling Day 21: 45%

## COc1ccc2c(c1)c(CC(=O)O)c(C)n2C(=O)c1ccc(Cl)cc1 [Indomethacin]
[1]; oral 0.25 mg./kg.
  (Primary Lesion) % Inhibition of Swelling Day 14: 30%
  (Primary Lesion) % Inhibition of Swelling Day 21: 4%
[1]; oral 0.5 mg./kg.
  (Primary Lesion) % Inhibition of Swelling Day 14: 40%
  (Primary Lesion) % Inhibition of Swelling Day 21: 20%
[1]; oral 1 mg./kg.
  (Primary Lesion) % Inhibition of Swelling Day 14: 46%
  (Primary Lesion) % Inhibition of Swelling Day 21: 19%
[1]; oral 2 mg./kg.
  (Primary Lesion) % Inhibition of Swelling Day 14: 51%
  (Primary Lesion) % Inhibition of Swelling Day 21: 24%
[2]
  arthritic paw swelling: inhibit arthritic paw swelling
  joint and bone deterioration: prevent joint and bone deterioration

## CCCCC1C(=O)N(c2ccccc2)N(c2ccccc2)C1=O [Phenylbutazone]
[1]; oral 18.5 mg./kg.
  (Primary Lesion) % Inhibition of Swelling Day 14: 31%
  (Primary Lesion) % Inhibition of Swelling Day 21: 7%
[1]; oral 37.5 mg./kg.
  (Primary Lesion) % Inhibition of Swelling Day 14: 56%
  (Primary Lesion) % Inhibition of Swelling Day 21: 14%
[1]; oral 75 mg./kg.
  (Primary Lesion) % Inhibition of Swelling Day 14: 62%
  (Primary Lesion) % Inhibition of Swelling Day 21: 28%
[1]; oral 150 mg./kg.
  (Primary Lesion) % Inhibition of Swelling Day 14: 75%
  (Primary Lesion) % Inhibition of Swelling Day 21: 44%

## N#CCC(=O)c1ccc(F)cc1.[Na] [p-Fluorobenzoylacetonitrile sodium salt, p-Fluorobenzoylacetonitrile, sodium salt]
[1]; oral 50 mg./kg.
  (Primary Lesion) % Inhibition of Swelling Day 14: 53%
  (Primary Lesion) % Inhibition of Swelling Day 21: 32%
